The values below come from patent US20070249988A1, “Electrotransport Delivery of Nesiritide” (ALZA CORPORATION, priority 2006, published 2007).

A short description of series [1]: Stability on exposure to human epidermis. Type of series: in vitro ADME. On the procedure:
(§1) The peptide was incubated in various buffer systems, both with and without human epidermis, at concentrations to be used for donor solutions. Experiments were conducted at 32° C. for 8 hours and 24 hours. The solutions were separated into portions and analyzed by RP-HPLC using the conditions described in the table below, both directly and after dilution to give a concentration of nesiritide at ˜100 μg/mL. In some cases, donor solutions were also removed and analyzed following ET Flux experiments.

Series [2] is described as follows: Stability under donor conditions (buffer, RP-HPLC). It counts as physicochemical. On the procedure:
The stability of nesiritide at 32° C. under both donor and receptor conditions was evaluated.
as §1

Series [3] is described as follows: Isocratic hydrophobic interaction chromatography (HIC). It counts as physicochemical. As for the experimental part:
Nesiritide was analyzed by isocratic hydrophobic interaction chromatography (HIC) using the conditions set forth in the table below to estimate the peptide's hydrophobicity.

The subject of another series is hairless guinea pigs. In words: Skin irritation after electrotransport administration. Type of series: in vivo. As for the experimental part:
Nesiritide was administered to hairless guinea pigs, and the guinea pigs were monitored for skin irritation.

Series [4] is described as follows: In use stability of hydrogel formulations under electrotransport conditions (HPLC). Type of series: physicochemical. To be noted: hydrogel formulation, over 24 hours, at 0.1 mA/cm^2 and 32° C. On the procedure:
In vitro electrotransport flux experiments were conducted using either synthetic polymeric Nulepore membranes or heat separated human cadaver epidermis. Custom-built horizontal diffusion cells were used for all in vitro skin flux experiments. Silver and silver chloride electrodes were used to apply current across the cell. Nesiritide hydrogels were placed between the silver anode and human heat-separated epidermis. In addition, a PVOH hydrogel containing a polymeric chloride source was placed between the silver anode and the drug hydrogel. A 1/10 dilution of Dulbecco's phosphate buffered saline (0.015 M NaCl) served as the receptor solution, which was continuously pumped through the receptor compartment. At multiple time points, receptor samples for HPLC analysis were collected using a custom-built, automated Hanson Research Microette™ collection system.
The receptor samples were analyzed for nesiritide using a HPLC assay. In addition, as show in FIGS. 6B and 7B, formulations were also extracted for nesiritide and analyzed via a HPLC assay after use in a flux experiment.

Series [5] in a line: Sedimentation equilibrium analytical ultracentrifugation (XLA), self-association. Type of series: physicochemical. Details: M(1 − vbar * p) observed: unit not given beside the values. The conditions noted are these: for Residual Pattern / M(1 − vbar * p) observed: 10 mM ionic; for M(1 − vbar * p) observed: 32° C., 44,000 rpm. As for the experimental part:
Nesiritide's tendency towards self-association was assessed using sedimentation equilibrium analytical ultracentrifugation (XLA). An increase in the concentration of peptide in the donor formulation usually is expected to produce an increase in the rate of transport. With many peptides, raising the peptide concentration in solution will also heighten any tendency toward self-association. The conditions of the donor formulation are selected to maximize delivery and minimize aggregation. The development of peptide aggregates in solution can be determined directly by analytical ultracentrifugation. The sensitivity of detection requires at least 5% of the peptide exist as an aggregate.
Solutions of nesiritide at pH 6 and 7, (10 mM ionic imidazole) and pH 8 (10 mM ionic serinamide) were analyzed by sedimentation equilibrium ultracentrifugation. Samples were centrifuged to equilibrium at 44,000 rpm at 32° C., overnight. Absorbance as a function of radial position was determined at 258 nm.
When a highly charged peptide, such as nesiritide at pH 7, is formulated in a low ionic strength buffer, it will behave in a nonideal manner. Under such conditions, the apparent buoyant molecular weight will be lowered because of charge-charge repulsion. Theory has not been developed to estimate the magnitude of this effect when the bulk of the solution ionic strength arises from the peptide and its counter ions (as opposed to the case where the buffer ions contribute the majority of the ionic strength). The calculated value for M(1−vbar*ρ), given in the table below, was based on the behavior expected under ideal conditions.

Setting [6] is: 3 mg/mL (~1 mM), pH 6 (imidazole).
Setting [7] is: 3 mg/mL (~1 mM), pH 7 (imidazole).
Where [8] appears, read: 3 mg/mL (~1 mM), pH 8 (serinamide).
Setting [9] is: 10 mg/mL (~3 mM), pH 7 (imidazole).

As to `CC[C@H](C)[C@@H]1NC(=O)[C@H](CCCNC(=N)N)NC(=O)[C@H](CC(=O)O)NC(=O)[C@H](CCSC)NC(=O)[C@H](CCCCN)NC(=O)[C@H](CCCNC(=N)N)NC(=O)CNC(=O)[C@H](Cc2ccccc2)NC(=O)[C@@H](NC(=O)CNC(=O)[C@H](CO)NC(=O)CNC(=O)[C@H](CCC(N)=O)NC(=O)[C@@H](NC(=O)[C@H](CCSC)NC(=O)[C@H](CCCCN)NC(=O)[C@@H]2CCCN2C(=O)[C@@H](N)CO)C(C)C)CSSC[C@@H](C(=O)N[C@@H](CCCCN)C(=O)N[C@H](C(=O)N[C@@H](CC(C)C)C(=O)N[C@@H](CCCNC(=N)N)C(=O)N[C@@H](CCCNC(=N)N)C(=O)N[C@@H](Cc2c[nH]cn2)C(=O)O)C(C)C)NC(=O)CNC(=O)[C@H](CC(C)C)NC(=O)CNC(=O)[C@H](CO)NC(=O)[C@H](CO)NC(=O)[C@H](CO)NC(=O)[C@H](CO)NC1=O` [Nesiritide, nesiritide], the resistance to destruction result in series [1] (following exposure to human epidermis) is listed as “quite resistant to destruction”. Moreover, the “stability with added human skin” value in series [1] (pH 7, 24-hour, 32° C., with added human skin) was “no destruction”. Further, the stability result in series [2] (pH 6, 7 or 8, without human epidermis, 32° C., 8-hour) is given as “considerable stability”; in series [2] (pH 6 and 7, 24-hour incubation at 32° C.) it was “remained stable”; in series [2] (pH 8, 24-hour incubation at 32° C.), “considerable loss of nesiritide”. Besides, in series [2] (pH 6 or 7, after 24 hours at 32° C.), the degradation entry was “minimal”. Further, the “peptide degradation or change in disulfide bond in donor solutions” value in series [2] (selected donor solutions following ET flux) is reported as “no peptide degradation or change in the disulfide bond”. In series [3] (imidazole at pH 7, 10 mM ionic), the “free energy of adsorption to the HIC column, δΔ Gads” value is 0.46 k J mole^−1. Besides, the “hydrophilicity by HIC” value in series [3] (pH 7.0 imidazole 10 mM ionic, 32° C.) is listed as “high measured hydrophilicity”. Also, the skin irritation entry in the series on hairless guinea pigs (0.1 mA/cm^2) and with hairless guinea pigs (0.2 mA/cm^2) was “mild” each time. In addition, the “in use stability under electrotransport conditions” value in series [4] is listed as “sufficient stability”. Moreover, the “Residual Pattern” value in series [5] (setting [6]) is “nonideal”; in series [5] (setting [7]) it was “flat”; in series [5] (setting [8]), “polydisperse”; in series [5] (setting [9]), “nonideal”. Moreover, the “M(1 − vbar * p) observed” value in series [5] (setting [6]) came out at 630; in series [5] (setting [7]) it was 644; in series [5] (setting [8]), 884; in series [5] (setting [9]), 703. Moreover, the self-association result in series [5] (all conditions tested, by ultracentrifugation) is “no indication of self-association”. In addition, in series [5] (highest concentration analyzed, 3 mM, 10 mg/mL at pH 7 in 10 mM ionic buffer), the association state entry was “remained monomeric”.
